Measurements published in EP0745595A1, “3-(3-Aryloxyphenyl)-1-(substituted methyl)-s-triazine-2,4,6-oxo or thiotrione herbicidal agents” (American Cyanamid Company, priority 1995, dated 1996).

Tests used:
Type in all cases: in vivo
[1] = system: […], PRESL.; assay: Preemergence weed control under flooded paddy conditions, MOOVA (Monochoria); details: for Herbicidal effect rating, MOOVA: preemergence, 3-4 weeks after treatment; for MOOVA: pre-weed
Method in brief: (§1)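 In undrained pots of silt loam flooded to 1.5-3 cm, compounds are pipetted into the water before emergence at the equivalent of about 0.5, 0.25, 0.125 and 0.063 kg/ha. Plants are scored 0-9 for stand, vigor, malformation, size and chlorosis at test end (3-4 weeks).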

[2] = system: CYPERUS SEROTINUS, ROTTB.; assay: Preemergence weed control under flooded paddy conditions, CYPSE (Flatsedge); details: for Herbicidal effect rating, CYPSE: preemergence, 3-4 weeks after treatment; for CYPSE: pre-weed
Method in brief: as §1

[3] = system: AMBROSIA ARTEMISIIFOLIA, L.; assay: Preemergence herbicidal evaluation, AMBEL (Ragweed, Common); details: for AMBEL herbicidal rating: rated four to five weeks after treatment
Method in brief: (§2)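 Injury scored visually (0–9; stand, vigor, malformation, size, chlorosis) versus untreated control, four to five weeks post-treatment. Application: aqueous acetone spray onto freshly planted soil cups, equivalent to about 0.125 to 0.50 kg/ha, plants then kept under standard greenhouse care.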

[4] = system: ORYZA SATIVA, L. TEBONNET; assay: Postemergence herbicidal evaluation, ORYSAT (Rice, Tebonnet); parameters: key: 0-9 visual rating scale vs untreated control
Method in brief: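 This postemergence greenhouse test used Oryza sativa cv. Tebonnet seedlings grown about two weeks in jiffy flats. Test material in 50/50 acetone/water with 0.5% TWEEN®20 surfactant was applied through a spray nozzle at 40 psi. Four to five weeks later, stand, vigor, malformation, size, chlorosis and overall appearance were rated 0-9 relative to a control, and repeat tests were averaged.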

[5] = system: CYPERUS IRIA; assay: Preemergence weed control under flooded paddy conditions, CYPIR (Rice Flatsedge); details: for Herbicidal effect rating, CYPIR: preemergence, 3-4 weeks after treatment; for CYPIR: pre-weed
Method in brief: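 This preemergence test mimicked flooded paddy conditions: rice flatsedge propagules were sown in the upper 0.5 cm of silt loam in undrained 32 oz. containers (10.5 cm diameter), with water held 1.5 to 3 cm over the soil. After normal greenhouse care, plants were scored 0-9 for stand, vigor, malformation, size, chlorosis and appearance relative to controls.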

[6] = system: SAGITTARIA PYGMAEA, L.; assay: Preemergence weed control under flooded paddy conditions, SAGPY (Arrowhead (Pygmaea)); details: for Herbicidal effect rating, SAGPY: preemergence, 3-4 weeks after treatment; for SAGPY: pre-weed
Method in brief: as §1

[7] = system: CASSIA OBTUSIFOLIA, L.; assay: Postemergence herbicidal evaluation, CASOB (Sicklepod); parameters: key to CASOB rating / Herbicidal effect rating, CASOB / CASOB: 0-9 visual rating scale vs untreated control
Method in brief: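 Postemergence foliar spray at approximately 0.125–0.500 kg/ha onto two-week seedlings; greenhouse hold, then 0–9 visual injury rating after 4–5 weeks.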

[8] = system: CASSIA OBTUSIFOLIA, L.; assay: Preemergence herbicidal evaluation, CASOB (Sicklepod); details: for CASOB herbicidal rating: rated four to five weeks after treatment
Method in brief: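 Preemergence herbicidal activity against sicklepod was assessed by planting seed mixed with potting soil atop about one inch of soil in pint cups. After treatment the cups were watered and handled per standard greenhouse practice. Tests ended four to five weeks later, with plant stand, vigor, malformation, size, chlorosis and overall appearance scored 0-9 relative to a control.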

[9] = system: GLYCINE MAX(L) MERR. CV. WILLIAMS; assay: Postemergence herbicidal evaluation, GLXMAW (Soybean, Williams); parameters: key to GLXMAW rating / Herbicidal effect rating, GLXMAW / GLXMAW: 0-9 visual rating scale vs untreated control
Method in brief: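 Herbicidal injury to Williams soybean was assessed after a postemergence spray of two-week-old seedlings grown in jiffy flats. Compounds were dispersed in an acetone/water (50/50) mixture with 0.5% TWEEN®20 surfactant and applied at 40 psi. After four to five weeks in the greenhouse, stand, vigor, malformation, size and chlorosis were compared against a control on a 0-9 scale, and results from replicate tests were averaged.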

[10] = system: GALIUM APARINE; assay: Preemergence herbicidal evaluation, GALAP (Galium); details: for GALAP herbicidal rating: rated four to five weeks after treatment
Method in brief: as §2

[11] = system: ECHINOCHLOA ORYZOIDES (ARD.)FRITSCH; assay: Preemergence weed control under flooded paddy conditions, ECHORC (Watergrass (Calif.)); details: for Herbicidal effect rating, ECHORC: preemergence, 3-4 weeks after treatment; for ECHORC: pre-weed
Method in brief: as §1

[12] = system: ZEA MAYS L.; assay: Preemergence herbicidal evaluation, ZEAMX (Corn, Field); details: for ZEAMX herbicidal rating: rated four to five weeks after treatment
Method in brief: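 Preemergence herbicidal activity on field corn: seeds in potting soil were sown atop roughly one inch of soil in separate pint cups, treated, and grown under standard greenhouse care. Four to five weeks post-treatment, stand, vigor, malformation, size, chlorosis and overall appearance were compared with a control and scored 0-9.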

[13] = system: SETARIA VIRIDIS, (L) BEAU; assay: Preemergence herbicidal evaluation, SETVI (Foxtail, Green); details: for SETVI herbicidal rating: rated four to five weeks after treatment
Method in brief: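 Preemergence herbicidal activity against green foxtail was assessed by planting seed mixed with potting soil over about one inch of soil in individual pint cups. After treatment the cups stayed in a greenhouse under standard care. At four to five weeks, each cup was scored 0-9 relative to a control based on stand, vigor, malformation, size, chlorosis and overall appearance.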

[14] = system: GLYCINE MAX(L) MERR. CV. WILLIAMS; assay: Preemergence herbicidal evaluation, GLXMAW (Soybean, Williams); details: for GLXMAW herbicidal rating: rated four to five weeks after treatment
Method in brief: as §2

In the case of “Methyl 3-{2-[(2-chloro-α,α,α,-trifluoro-p-tolyl)oxy]phenyl}tetrahydro-5-methyl-2,4,6-trioxo-s-triazine-1(2H)-acetate [Compound 28]”, the “Herbicidal effect rating, MOOVA” value ([1]; 0.063 kg/ha) is reported as 0.0, the “Herbicidal effect rating, MOOVA” value ([1]; 0.125 kg/ha) is reported as 0.0 and the “Herbicidal effect rating, MOOVA” value ([1]; 0.250 kg/ha) is reported as 2.0. The “Herbicidal effect rating, MOOVA” value ([1]; 0.500 kg/ha) was 9.0, the MOOVA ([1]; Rate 0.250 kg/ha) was 2.0 and the MOOVA ([1]; Rate 0.500 kg/ha) was 9.0. The MOOVA ([1]; Rate 1.000 kg/ha) was 9.0, the “Herbicidal effect rating, CYPSE” value ([2]; 0.063 kg/ha) was 0.0 and the “Herbicidal effect rating, CYPSE” value ([2]; 0.125 kg/ha) was 0.0. The “Herbicidal effect rating, CYPSE” value ([2]; 0.250 kg/ha) was 0.0, the “Herbicidal effect rating, CYPSE” value ([2]; 0.500 kg/ha) was 0.0 and the CYPSE ([2]; Rate 0.250 kg/ha) was 0.0. It also gave a CYPSE ([2]; Rate 0.500 kg/ha) of 0.0, a CYPSE ([2]; Rate 1.000 kg/ha) of 0.0 and an AMBEL ([3]; Rate 0.125 kg/ha) of 5.0. For the same substance, the AMBEL herbicidal rating ([3]; Rate 0.125 kg/ha) was 5.0, the AMBEL ([3]; Rate 0.250 kg/ha) was 5.0 and the AMBEL herbicidal rating ([3]; Rate 0.250 kg/ha) was 5.0. It also gave an AMBEL ([3]; Rate 0.500 kg/ha) of 7.0, an AMBEL herbicidal rating ([3]; Rate 0.500 kg/ha) of 7.0 and an AMBEL ([3]; Rate 1.000 kg/ha) of 5.0. For the same substance, the ORYSAT ([4]; Rate 0.063 kg/ha) was 1.5, the ORYSAT ([4]; Rate 0.125 kg/ha) was 2.0 and the ORYSAT rating ([4]; Rate 0.125 kg/ha) was 2.0. It also gave an ORYSAT ([4]; Rate 0.250 kg/ha) of 2.5, an ORYSAT rating ([4]; Rate 0.250 kg/ha) of 2.5 and an ORYSAT ([4]; Rate 0.500 kg/ha) of 3.0. For the same substance, the ORYSAT rating ([4]; Rate 0.500 kg/ha) was 3.0, the “Herbicidal effect rating, CYPIR” value ([5]; 0.063 kg/ha) was 0.0 and the “Herbicidal effect rating, CYPIR” value ([5]; 0.125 kg/ha) was 0.0. The “Herbicidal effect rating, CYPIR” value ([5]; 0.250 kg/ha) was 0.0, the “Herbicidal effect rating, CYPIR” value ([5]; 0.500 kg/ha) was 4.0 and the CYPIR ([5]; Rate 0.250 kg/ha) was 0.0. The CYPIR ([5]; Rate 0.500 kg/ha) was 6.5, the CYPIR ([5]; Rate 1.000 kg/ha) was 7.0 and the “Herbicidal effect rating, SAGPY” value ([6]; 0.063 kg/ha) was 0.0. The “Herbicidal effect rating, SAGPY” value ([6]; 0.125 kg/ha) was 0.0, the “Herbicidal effect rating, SAGPY” value ([6]; 0.250 kg/ha) was 0.0 and the “Herbicidal effect rating, SAGPY” value ([6]; 0.500 kg/ha) was 0.0. The SAGPY ([6]; Rate 0.250 kg/ha) was 0.0, the SAGPY ([6]; Rate 0.500 kg/ha) was 0.0 and the SAGPY ([6]; Rate 1.000 kg/ha) was 0.0. For the same substance, the CASOB ([7]; Rate 0.063 kg/ha) was 3.0, the CASOB ([7]; Rate 0.125 kg/ha) was 5.0 and the CASOB rating ([7]; Rate 0.125 kg/ha) was 5.0. It also gave a CASOB ([7]; Rate 0.250 kg/ha) of 6.0, a CASOB rating ([7]; Rate 0.250 kg/ha) of 6.0 and a CASOB ([7]; Rate 0.500 kg/ha) of 6.5. The CASOB rating ([7]; Rate 0.500 kg/ha) was 6.5, the CASOB ([8]; Rate 0.125 kg/ha) was 0.0 and the CASOB herbicidal rating ([8]; Rate 0.125 kg/ha) was 0.0. It also gave a CASOB ([8]; Rate 0.250 kg/ha) of 2.0, a CASOB herbicidal rating ([8]; Rate 0.250 kg/ha) of 2.0 and a CASOB ([8]; Rate 0.500 kg/ha) of 1.5. It also gave a CASOB herbicidal rating ([8]; Rate 0.500 kg/ha) of 3.0, a CASOB ([8]; Rate 1.000 kg/ha) of 3.0 and a GLXMAW ([9]; Rate 0.063 kg/ha) of 2.5. The GLXMAW ([9]; Rate 0.125 kg/ha) was 3.5, the GLXMAW rating ([9]; Rate 0.125 kg/ha) was 3.5 and the GLXMAW ([9]; Rate 0.250 kg/ha) was 4.5. For the same substance, the GLXMAW rating ([9]; Rate 0.250 kg/ha) was 4.5, the GLXMAW ([9]; Rate 0.500 kg/ha) was 5.0 and the GLXMAW rating ([9]; Rate 0.500 kg/ha) was 5.0. For the same substance, the GALAP ([10]; Rate 0.125 kg/ha) was 3.0, the GALAP herbicidal rating ([10]; Rate 0.125 kg/ha) was 3.0 and the GALAP ([10]; Rate 0.250 kg/ha) was 4.0. For the same substance, the GALAP herbicidal rating ([10]; Rate 0.250 kg/ha) was 4.0, the GALAP ([10]; Rate 0.500 kg/ha) was 5.5 and the GALAP herbicidal rating ([10]; Rate 0.500 kg/ha) was 6.0. For the same substance, the GALAP ([10]; Rate 1.000 kg/ha) was 5.0, the “Herbicidal effect rating, ECHORC” value ([11]; 0.063 kg/ha) was 0.0 and the “Herbicidal effect rating, ECHORC” value ([11]; 0.125 kg/ha) was 0.0. For the same substance, the “Herbicidal effect rating, ECHORC” value ([11]; 0.250 kg/ha) was 2.0, the “Herbicidal effect rating, ECHORC” value ([11]; 0.500 kg/ha) was 8.0 and the ECHORC ([11]; Rate 0.250 kg/ha) was 2.0. For the same substance, the ECHORC ([11]; Rate 0.500 kg/ha) was 8.5, the ECHORC ([11]; Rate 1.000 kg/ha) was 7.0 and the ZEAMX ([12]; Rate 0.125 kg/ha) was 0.0. It also gave a ZEAMX herbicidal rating ([12]; Rate 0.125 kg/ha) of 0.0, a ZEAMX ([12]; Rate 0.250 kg/ha) of 0.0 and a ZEAMX herbicidal rating ([12]; Rate 0.250 kg/ha) of 0.0. It also gave a ZEAMX ([12]; Rate 0.500 kg/ha) of 1.0, a ZEAMX herbicidal rating ([12]; Rate 0.500 kg/ha) of 1.0 and a ZEAMX ([12]; Rate 1.000 kg/ha) of 1.0. It also gave an SETVI ([13]; Rate 0.125 kg/ha) of 0.0, an SETVI herbicidal rating ([13]; Rate 0.125 kg/ha) of 0.0 and an SETVI ([13]; Rate 0.250 kg/ha) of 2.0. For the same substance, the SETVI herbicidal rating ([13]; Rate 0.250 kg/ha) was 2.0, the SETVI ([13]; Rate 0.500 kg/ha) was 3.0 and the SETVI herbicidal rating ([13]; Rate 0.500 kg/ha) was 3.0. For the same substance, the SETVI ([13]; Rate 1.000 kg/ha) was 6.0, the GLXMAW ([14]; Rate 0.125 kg/ha) was 0.0 and the GLXMAW herbicidal rating ([14]; Rate 0.125 kg/ha) was 0.0. For the same substance, the GLXMAW ([14]; Rate 0.250 kg/ha) was 1.0, the GLXMAW herbicidal rating ([14]; Rate 0.250 kg/ha) was 1.0 and the GLXMAW ([14]; Rate 1.000 kg/ha) was 0.0.
